Data reported in patent US20240358692A1, “TREATMENT OF SCLERODERMA” (Aisa Pharma, Inc., priority 2023, published 2024).

System: participants with SSc-RP
Experiment: Average duration of weekly RP attacks (minutes), patient diary
Type: in vivo, human
Excerpt: The absolute change in average duration of weekly RP attacks from baseline to the end of each dosing period was and will be a secondary outcome variable. The sponsor-developed participant-informed diary was and will be used to record data. Average duration of weekly RP attacks is defined as the total duration of RP attacks divided by total number of RP attacks within the last 7 days of each dosing period. Total duration of RP attacks during the last 7 days of screening period divided by the total number of RP attacks will be used as baseline for the analysis of all periods. The variable will be calculated similar to frequency data as before.

[1] = Cilnidipine 10 mg, Excluding Outliers, ITT Population - Part A
[2] = Cilnidipine 10 mg, Excluding Outliers, by Baseline RCS, first RCS subgroup of table (not named), ITT Population - Part A
[3] = Cilnidipine 10 mg, by Baseline RCS, first RCS subgroup of table (not named), ITT Population - Part A
[4] = Cilnidipine 10 mg, by Baseline RCS, first subgroup of table, ITT Population - Part A
[5] = Cilnidipine 20 mg, Excluding Outliers, ITT Population - Part A
[6] = Cilnidipine 20 mg, Excluding Outliers, by Baseline RCS, first RCS subgroup of table (not named), ITT Population - Part A
[7] = Cilnidipine 20 mg, by Baseline RCS, first RCS subgroup of table (not named), ITT Population - Part A
[8] = Cilnidipine 20 mg, by Baseline RCS, first subgroup of table, ITT Population - Part A
[9] = Pooled Cilnidipine 10 mg and Cilnidipine 10 mg + Tadalafil 5 mg, Excluding Outliers, ITT Population - Part A
[10] = Pooled Cilnidipine 10 mg and Cilnidipine 10 mg + Tadalafil 5 mg, ITT Population - Part A
[11] = Pooled Cilnidipine 10 mg and Cilnidipine 10 mg + Tadalafil 5 mg, by Baseline RCS, first subgroup of table, ITT Population - Part A
[12] = Pooled Cilnidipine 10 mg and Cilnidipine 10 mg + Tadalafil 5 mg, by Baseline RCS, second subgroup of table, ITT Population - Part A

COCCOC(=O)C1=C(C)NC(C)=C(C(=O)OC/C=C/c2ccccc2)C1c1cccc([N+](=O)[O-])c1 (stereo not shown) [Cilnidipine]
24.76 min: Average Duration of Weekly RP Attacks (All Attacks), Mean [11] | Average Duration of Weekly RP Attacks (All Attacks), Median [11]
-8.48 min: Average Duration of Weekly RP Attacks (All Attacks), Change from Baseline, Mean [1] | Average Duration of Weekly RP Attacks (All Attacks), Change from Baseline, Median [10]
31.52 min: Average Duration of Weekly RP Attacks (All Attacks), Mean [4] | Average Duration of Weekly RP Attacks (All Attacks), Median [4]
-1.09 min: Average Duration of Weekly RP Attacks (All Attacks), Change from Baseline, Mean [5] | Average Duration of Weekly RP Attacks (All Attacks), Change from Baseline, Median [5]
−34.60%: Percent Change from Baseline in average duration of weekly symptomatic RP attacks, Median [1] | Percent Change from Baseline in average duration of weekly symptomatic RP attacks, Mean [2] | Percent Change from Baseline in average duration of weekly symptomatic RP attacks, Median [2] | Average Duration of Weekly Symptomatic RP Attacks Percent Change from Baseline, Mean (Cilnidipine 10 mg, ITT Part A) | Average Duration of Weekly Symptomatic RP Attacks Percent Change from Baseline, Median (Cilnidipine 10 mg, ITT Part A) | Percent Change from Baseline in average duration of weekly symptomatic RP attacks, Mean [3] | Percent Change from Baseline in average duration of weekly symptomatic RP attacks, Median [3]
−22.40%: Percent Change from Baseline in average duration of weekly symptomatic RP attacks, Mean [9]
31.64 min: Average Duration of weekly symptomatic RP attacks, Mean [1] | Average Duration of weekly symptomatic RP attacks, Median [1] | Average Duration of weekly symptomatic RP attacks, Mean [2] | Average Duration of weekly symptomatic RP attacks, Median [2] | Average Duration of weekly symptomatic RP attacks, Mean [3] | Average Duration of weekly symptomatic RP attacks, Median [3] | Average Duration of weekly symptomatic RP attacks, Mean (Cilnidipine 10 mg, last 7 days of dosing period, ITT Part A) | Average Duration of weekly symptomatic RP attacks, Median [9]
−24.97%: Average Duration of Weekly RP Attacks (All Attacks), Percent Change from Baseline, Mean [5] | Average Duration of Weekly RP Attacks (All Attacks), Percent Change from Baseline, Median [5]
−20%: Duration (change) (Cilnidipine 20 mg (n = 3))
−16.67%: Percent Change from Baseline in average duration of weekly symptomatic RP attacks, Mean (Pooled Cilnidipine 10 mg and Cilnidipine 10 mg + Tadalafil 5 mg, by Baseline RCS, first RCS subgroup of table (not named), ITT Population - Part A)
16.73 min: Average Duration of weekly symptomatic RP attacks, Mean [5] | Average Duration of weekly symptomatic RP attacks, Median [5] | Average Duration of weekly symptomatic RP attacks, Mean [6] | Average Duration of weekly symptomatic RP attacks, Median [6] | Average Duration of weekly symptomatic RP attacks, Mean [7] | Average Duration of weekly symptomatic RP attacks, Median [7] | Average Duration of Weekly RP Attacks (All Attacks), Mean [8] | Average Duration of Weekly RP Attacks (All Attacks), Median [8]
-16.74 min: Change from Baseline in average duration of weekly symptomatic RP attacks, Mean [2] | Change from Baseline in average duration of weekly symptomatic RP attacks, Median [2] | Average Duration of Weekly Symptomatic RP Attacks Change from Baseline, Mean (Cilnidipine 10 mg, ITT Part A) | Average Duration of Weekly Symptomatic RP Attacks Change from Baseline, Median (Cilnidipine 10 mg, ITT Part A) | Change from Baseline in average duration of weekly symptomatic RP attacks, Mean [3] | Change from Baseline in average duration of weekly symptomatic RP attacks, Median [3] | Change from Baseline in average duration of weekly symptomatic RP attacks, Median [9] | Average Duration of Weekly Symptomatic RP Attacks Change from Baseline, Median (Pooled Cilnidipine 10 mg and Cilnidipine 10 mg + Tadalafil 5 mg, ITT Part A)
-20.38 min: Average Duration of Weekly RP Attacks (All Attacks), Change from Baseline, Mean [12] | Average Duration of Weekly RP Attacks (All Attacks), Change from Baseline, Median [12]
-4.13 min: Average Duration of Weekly RP Attacks (All Attacks), Change from Baseline, Mean [11] | Average Duration of Weekly RP Attacks (All Attacks), Change from Baseline, Median [11]
−31.05%: Percent Change from Baseline in average duration of weekly symptomatic RP attacks, Mean [5] | Percent Change from Baseline in average duration of weekly symptomatic RP attacks, Median [5] | Percent Change from Baseline in average duration of weekly symptomatic RP attacks, Mean [6] | Percent Change from Baseline in average duration of weekly symptomatic RP attacks, Median [6] | Average Duration of Weekly Symptomatic RP Attacks Percent Change from Baseline, Mean (Cilnidipine 20 mg, ITT Part A) | Average Duration of Weekly Symptomatic RP Attacks Percent Change from Baseline, Median (Cilnidipine 20 mg, ITT Part A) | Percent Change from Baseline in average duration of weekly symptomatic RP attacks, Mean [7] | Percent Change from Baseline in average duration of weekly symptomatic RP attacks, Median [7]
-12.11 min: Change from Baseline in average duration of weekly symptomatic RP attacks, Mean [9]
−33.84%: Percent Change from Baseline in average duration of weekly symptomatic RP attacks, Median [9]
-3.13 min: Change from Baseline in average duration of weekly symptomatic RP attacks, Mean [5] | Change from Baseline in average duration of weekly symptomatic RP attacks, Median [5] | Change from Baseline in average duration of weekly symptomatic RP attacks, Mean [6] | Change from Baseline in average duration of weekly symptomatic RP attacks, Median [6] | Average Duration of Weekly Symptomatic RP Attacks Change from Baseline, Mean (Cilnidipine 20 mg, ITT Part A) | Average Duration of Weekly Symptomatic RP Attacks Change from Baseline, Median (Cilnidipine 20 mg, ITT Part A) | Change from Baseline in average duration of weekly symptomatic RP attacks, Mean [7] | Change from Baseline in average duration of weekly symptomatic RP attacks, Median [7]
−9.97%: Average Duration of Weekly RP Attacks (All Attacks), Percent Change from Baseline, Mean [11] | Average Duration of Weekly RP Attacks (All Attacks), Percent Change from Baseline, Median [11]
−21.20%: Average Duration of Weekly RP Attacks (All Attacks), Percent Change from Baseline, Mean [1] | Average Duration of Weekly RP Attacks (All Attacks), Percent Change from Baseline, Median [10]
